Measurements taken from US20070117182A1, “Nucleic acids conferring transcriptional responsiveness on the RANKL gene promoter and uses thereof” (Wisconsin Alumni Research Foundation, priority 2005, published 2007).

Experiments:
Format in all cases: cell-based, mouse
RANKL = experiment: RT-PCR of RANKL transcripts in treated ST2 cells; conditions: treated up to 24 hours, agent alone, vs beta-actin controls
Experimental: FIG. 2. Induction of RANKL in ST2 cells by hormones and cytokines. ST2 cells were treated with the agents indicated for periods up to 24 hours. Total RNA was isolated and subjected to RT-PCR using a primer set to mouse RANKL and beta-actin. Positive vitamin D target control genes include Cyp24 and osteopontin (OPN).
The inventors first established a model in which RANKL is both induced in response to 1,25(OH)2D3, PTH (forskolin) and oncostatin M (OSM), and is capable of supporting osteoclast formation when co-cultured with bone marrow monocyte- or spleen cell-derived osteoclast precursors. While a number of cell types express RANKL and induce osteoclastogenesis, the historical literature strongly supports mouse ST2 cells in this capacity, prompting the inventors to focus on this stromal/preosteoblastic line for initial studies. […] Each of these components is known to both induce RANKL expression and promote osteoclast formation as well. […] Indeed, GC effects are widely observed. […] The ability of GCs to enhance osteoclast formation in coculture assays in the presence of 1,25(OH)2D3, however, is likely due also to its coordinate ability to suppress OPG.

[1] = test system: D5 region of the RANKL gene (RL-CCL); experiment: pTK-RL(D5) luciferase reporter in ST2 cells; conditions: 24 hours; for luciferase activity via D5 (RL-CCL), TK promoter: agent alone
Experimental: FIG. 6. Transcriptional activity of the D5 regions of the RANKL gene in the context of the TK promoter. Sequence surrounding the D5 region (1072 bp) was cloned into the pTK-luciferase vector and termed pTK-RL(D5). […] Cells were harvested after 24 hours and luciferase activity assessed. B) ST2 cells were transfected as in A above but without the VDR expression vector and evaluated as in A. C) COS-7 cells were transfected and evaluated as in A above. Luciferase was normalized using beta-gal activity. Data represent the mean of triplicate determinations (SEM). The pTK-luc control vector was unresponsive to any of the inducers (see FIG. 9). *, p<0.05 vs no treatment control.
FIG. 11. […] A) Coordinates of the RL-D5 and the RL-D5b regions in the mouse RANKL upstream region. ST2 cells were transfected with either B) pTK-luc or pTK-mRL-D5 or C) pTK-luc and pTK-mRL-D5b and then treated with the indicated inducers. Cells were harvested after 24 hours and evaluated for luciferase activity. Luciferase was normalized using β-gal activity. Data represent the mean of triplicate determinations (SEM). *, p<0.05 vs no treatment control. **, p<0.05 vs no treatment and 1,25(OH)2D3 treated controls.
The activity of an enhancer must be evaluated in the context of its local environment, preferentially in the context of both other enhancers and its native promoter. In the case of the RANKL gene, however, this is clearly not possible due to the numbers and the distant locations of the potential regulatory regions. To tackle this problem, the inventors isolated approximately 800 to 1100 bp fragments of each region (D1 to D5) as identified through the ChIP/Chip analysis, cloned each into a luciferase expression vector under the control of a viral thymidine kinase (TK) minimal promoter, and explored the 1,25(OH)2D3- and GC-inducible activity of each following transfection into ST2 cells. […] Nevertheless, positive results provide added support for the potential regulatory capabilities of an individual DNA fragment even when examined in isolation. […] This induction was magnified by the addition of a VDR expression vector (FIG. 6a), but was also evident in the absence of such addition (FIG. 6b). […] To ensure that the viral TK promoter background was not contributing to our evaluation, the inventors cloned the mouse RANKL promoter (−100 to +65) into pGL3, inserted RL D5 and evaluated its activity in ST2 cells as well.
Based upon the above data, the inventors explored the possibility that similar to 1,25(OH)2D3, forskolin, PGE2 and OSM might be capable of activating transcription via the D5 fragment of the RANKL gene. […] Cells were harvested 24 hours later and evaluated for luciferase activity as in the previous experiments. […]

[2] = test system: RANKL gene upstream regions D1-D5; experiment: ChIP analysis of transcription factor binding to the RANKL gene in ST2 cells; conditions: 6 hours
Experimental: FIG. 4. Confirmation of ChIP/chip data using ChIP. A) Linear arrangement of RANKL locus re-oriented 5′ to 3′ (left to right) indicating the positions of D5 to D1, P2, and P1/TSS. Designation of primer sets used for detection in ChIP is indicated. B) ST2 cells were treated with either vehicle or 1,25(OH)2D3 and then subjected to ChIP using antibodies to VDR, RXR or IgG. Precipitated DNA was evaluated using the primer sets identified in A.
FIG. 5. […] ST2 cells were treated with the above hormones and after 6 hours subjected to ChIP analysis using antibodies to VDR, RXR, GR, C/EBP, β, RNA pol II, and IgG. Precipitated DNA was evaluated for enrichment of the indicated regions of the RANKL gene.
FIG. 10. ChIP analysis of transcription factor binding to RL D5, the TSS and intervening regions of the RANKL locus in response to 1,25(OH)2D3, forskolin and oncostatin M (OSM). ST2 cells were treated for 6 hr with the indicated inducing agents and then subjected to ChIP analysis using antibodies to the indicated factors. Precipitated DNA was analyzed by PCR for enrichment of IS7, D5, IS6 and the TSS of the RANKL gene locus. See text for details of results.
The isolated DNA was then evaluated by PCR using primers as depicted in the diagram seen in FIG. 4a which were designed to amplify small DNA segments within the 5 regions as well as segments located at intervening sites (IS) outside the five regions.
The inventors hypothesized that GC's might perhaps enhance VDR binding to RANKL regulatory regions. […] The inventors focused on the RL-CCL region (D5) and amplified the precipitated DNA using primers to this region of the gene as well as to D4, D3 and TSS and intervening regions. […] The inventors also explored the possibility that C/EBPbeta might similarly participate in the RANKL activation process. C/EBPbeta plays a significant role in the regulation of osteoblastic genes, and is found associated with both 1,25(OH)2D3 and GC target genes.
In addition to 1,25(OH)2D3 and GCs, RANKL expression is also known to be modulated by such factors as PTH, PGE2, the gp130-activating cytokines IL-6 and OSM, as well as IL-1beta and TNFalpha. […] Forskolin was used as substitute for PTH, however, as ST2 cells are deficient in PTH receptor (PTHR). Both PTH/forskolin and PGE2 are known to induce RANKL gene expression via CREB whereas OSM functions via Stat3. […] The inventors therefore explored the possibility that the RL-CCL might represent a focal target for these inducers via either CREB or Stat3 in the RANKL gene locus. ST2 cells were treated with either vehicle, 1,25(OH)2D3, forskolin or OSM for a 6 hour period and then subjected to a ChIP analysis using antibodies to VDR, C/EBPbeta, CREB, phospho-CREB, ATF-2, ATF-4, Stat3, RNA pol II and control IgG. Isolated DNA was then subjected to amplification using primers corresponding to the D5 region (RL-CCL) of the RANKL gene. As controls, the inventors also assessed the extent to which the immunoprecipitations led to the enrichment of DNA at sites surrounding the D5 region of the RANKL gene.

Molecule	RANKL transcripts (RANKL)	luciferase activity via D5 (RL-CCL), TK promoter [1]	CREB binding to the D5 region [2]	Stat3 binding to the D5 region [2]	VDR binding to RANKL regulatory regions (D5) ([2]; agent alone)	increase in transcriptional output via mRL-D5 ([1]; OSM 20 ng/ml)
IL-1beta: cytokine known to induce RANKL expression	substantial time-dependent increase	–	–	–	–	–
TNFalpha	substantial time-dependent increase	–	–	–	–	–
CCCCC[C@H](O)/C=C/[C@H]1[C@H](O)CC(=O)[C@@H]1C/C=C\CCCC(=O)O [PGE2]	substantial time-dependent increase	not forskolin or PGE2	–	–	–	–
oncostatin M [OSM]	substantial time-dependent increase	responsive	modestly increased CREB association	induces significant binding of Stat3	no effect on VDR binding	3 fold
